Data set [1] in a line: Evaluation of organ selectivity (non-binding drug concentration in liver and pancreas after oral administration). Particulars: C57BL/6j, mouse, mice, 150 minutes after administration. Type of data set: in vivo, normal mice (C57BL/6j mice). The procedure:
A test compound suspended in 10% (v/v) Gelucire 44/14 (GATTEFOSSE) was orally administered to normal mice (C57BL/6j mice, CLEA Japan, Inc.). The percentages of drugs that had not bound to proteins in the liver and the pancreas, which had been obtained by the in vitro test, were […] the total concentrations of the drugs in the liver and the pancreas obtained 150 minutes after administration of the drugs, so as to calculate the non-binding concentration of the drug in each case. The ratio of the non-binding concentration of the drug in the […] was calculated, and thus, liver selectivity was evaluated. As a comparative compound, PSN-GK1 described in non-patent document 11 (corresponding to Example 94 of patent document 2) was produced according to the method described in patent document 2, and the produced comparative compound was then evaluated in the same manner as described above (in the table, the comparative compound is indicated as PSN-GK1).

Experiment in data set [2]: as above
It counts as in vivo, normal mice (C57BL/6j mice). Particulars: C57BL/6j, mouse, liver and pancreas, mice, 150 minutes after administration.

In data set [3] the target is T1, GST-GK derived from human liver GK (Homo sapiens, UniProt P35557).
T1 construct: made in house; host or cells: Escherichia coli DH5α
T1 sequence (P35557 1-466 isoform P35557-2): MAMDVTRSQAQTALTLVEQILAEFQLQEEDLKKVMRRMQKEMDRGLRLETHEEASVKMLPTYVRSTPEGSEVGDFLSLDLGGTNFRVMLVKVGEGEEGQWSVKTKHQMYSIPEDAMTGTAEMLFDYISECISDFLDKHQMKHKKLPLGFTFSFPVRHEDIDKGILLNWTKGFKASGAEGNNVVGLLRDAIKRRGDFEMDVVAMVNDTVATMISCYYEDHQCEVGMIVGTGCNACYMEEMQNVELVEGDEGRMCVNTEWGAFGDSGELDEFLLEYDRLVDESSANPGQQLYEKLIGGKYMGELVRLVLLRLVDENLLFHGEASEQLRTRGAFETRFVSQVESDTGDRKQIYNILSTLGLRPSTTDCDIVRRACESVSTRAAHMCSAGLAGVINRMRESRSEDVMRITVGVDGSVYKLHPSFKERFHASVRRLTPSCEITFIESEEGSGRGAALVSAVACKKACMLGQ
The data set can be described thus: In vitro GK activating action measurement test. Type of data set: biochemical. Particulars: 10 min; test compound 1 μmol/L, glucose 2.5 mmol/L, 25° C.; read-out: GK activation rate (%). From the text: cDNA (GenBank Accession No. NM_033507, human glucokinase, variant 2) encoding human liver-type GK polypeptide was cloned by performing a polymerase chain reaction (hereinafter referred to as “PCR”) using a human liver cDNA library (Human liver QUICK-Clone cDNA, TAKARA BIO INC.), and the thus cloned cDNA was then introduced into an expression vector (pGEX-3X, GE Healthcare Japan) for glutathione S transferase (hereinafter referred to as GST) fusion proteins. The resulting vector was introduced into Escherichia coli (Competent high DH5α, Toyobo Co., Ltd.), and the transformed Escherichia coli was then cultured at 37° C. Thereafter, Isopropyl β-D-1-thiogalactopyranoside (final concentration: 1 mmol/L, Sigma Aldrich Japan) was added to the culture, and the obtained mixture was then cultured at 30° C. for 3 hours. Thereafter, a cell mass was recovered. The recovered cell mass was subjected to freezing-and-thawing, and the resulting cell mass was then suspended in Triton-X that had been added in a final concentration of 1% to a phosphate buffer, followed by disintegration with an ultrasonic disintegrator. The homogenate was centrifuged at 33,200 rpm at 4° C. for 1 hour. Thereafter, the supernatant was recovered, and a GST-GK fusion protein was then purified using a glutathione column (GSTrap FF, GE Healthcare Japan). The obtained GST-GK fusion protein was divided into some portions each having a small volume, and the thus divided proteins were then preserved at −80° C.
A GK assay was carried out at 25° C. at a final incubation volume of 100 μL using a flat-bottom 96-well assay plate. An assay buffer comprised 25 mmol/L Hepes buffer (pH 7.1), 25 mmol/L KCl, 2.5 mmol/L or 10 mmol/L D-glucose, 5 mmol/L ATP, 1 mmol/L nicotinamide adenine dinucleotide phosphate (abbreviated as NADP), 2 mmol/L MgCl2, 1 mmol/L dithiothreitol (DTT), 2 units/mL glucose-6 phosphate dehydrogenase (G6PDH), and 1 μg/mL GST-GK derived from human liver GK. ATP, G6PDH, and NADP were purchased from Roche Diagnostics. […] The thus mixed solution was preincubated in an incubator in which the temperature was controlled at 25° C. for 15 minutes. Subsequently, the reaction was initiated by adding 10 μL of the GST-GK solution to the reaction mixture, resulting in a final concentration of 0.1 μg/mL. After initiation of the reaction, an increase in the optical concentration at 340 nm (OD340) was monitored with a microplate spectrophotometer (Varsamax, Molecular Devices Japan K. K.) every 10 seconds over an incubation period of 10 minutes. An inclination of the OD340 increase was defined as raw data. The GK activating rate was indicated as a numerical value obtained from the expression: (Inclination of OD340 increase by addition of the test compound)/(inclination of OD340 increase without addition of the test compound). The results of the GK activating rate obtained at a test compound concentration of 1 μmol/L under the condition of a glucose concentration of 2.5 mmol/L are shown in the following table 2.

The mark [4] stands for this setting: liver, dose 10 mg/kg, read-out: Non-binding concentration (ng/mL) Liver.
Setting [5] is: pancreas, dose 10 mg/kg, read-out: Non-binding concentration (ng/mL) Pancreas.

Each structure is given as a SMILES string. Read-outs that look alike come from different tables or passages of the source.

For the compound `CNC(=O)N1CC[C@H](C[C@@H](C(=O)Nc2ncc(F)s2)c2ccc(S(=O)(=O)C3CC3)cc2)C1` [Example 2, (S)-3-((R)-2-(4-(cyclopropylsulfonyl)phenyl)-3-((5-fluorothiazol-2-yl)amino)-3-oxopropyl)-N-methylpyrrolidine-1-carboxamide], the concentration at 150 min in data set [1] (liver, dose 30 mg/kg, read-out: Non-binding concentration (ng/mL) Liver) stood at 23 ng/mL; in data set [1] (pancreas, dose 30 mg/kg, read-out: Non-binding concentration (ng/mL) Pancreas), 0.56 ng/mL. In addition, the selectivity ratio at 150 min in data set [2] (dose 30 mg/kg) stood at 41.
`CC(=O)N1CC[C@H](C[C@@H](C(=O)Nc2ncc(F)s2)c2ccc(S(=O)(=O)C3CC3)cc2)C1` [Example 3, (R)-3-((S)-1-acetylpyrrolidin-3-yl)-2-(4-(cyclopropylsulfonyl)phenyl)-N-(5-fluorothiazol-2-yl)propanamide]: the concentration at 150 min stood at 65 ng/mL in data set [1] (setting [4]) and 3.8 ng/mL in data set [1] (setting [5]). Moreover, the selectivity ratio at 150 min in data set [2] (dose 10 mg/kg) was 17. Further, the activity at 1 µM in data set [3] was 803%.
Turning to `CCCNC(=O)N1CC[C@H](C[C@@H](C(=O)Nc2ncc(F)s2)c2ccc(S(=O)(=O)C3CC3)cc2)C1` [Example 6, (S)-3-((R)-2-(4-(cyclopropylsulfonyl)phenyl)-3-((5-fluorothiazol-2-yl)amino)-3-oxopropyl)-N-propylpyrrolidine-1-carboxamide], in data set [3], the activity at 1 µM came to 422%.
For the compound `COC(=O)N1CC[C@H](C[C@@H](C(=O)Nc2ncc(F)s2)c2ccc(S(=O)(=O)C3CC3)cc2)C1` [Example 7, (S)-methyl 3-((R)-2-(4-(cyclopropylsulfonyl)phenyl)-3-((5-fluorothiazol-2-yl)amino)-3-oxopropyl)pyrrolidine-1-carboxylate], the activity at 1 µM in data set [3] is 828%.
Consider `CNC(=S)N1CC[C@H](C[C@@H](C(=O)Nc2ncc(F)s2)c2ccc(S(=O)(=O)C3CC3)cc2)C1` [Example 8, (R)-2-(4-(cyclopropylsulfonyl)phenyl)-N-(5-fluorothiazol-2-yl)-3-((S)-1-(methylcarbamothioyl)pyrrolidin-3-yl)propanamide], for which, in data set [3], the activity at 1 µM was 535%.
Take `O=C(Nc1ncc(F)s1)[C@H](C[C@H]1CCN(C(=O)NO)C1)c1ccc(S(=O)(=O)C2CC2)cc1` [Example 10, (S)-3-((R)-2-(4-(cyclopropylsulfonyl)phenyl)-3-((5-fluorothiazol-2-yl)amino)-3-oxopropyl)-N-hydroxypyrrolidine-1-carboxamide]: the activity at 1 µM in data set [3] was 602%.
On the same count and under the same terms, the same measure for `CNC(=O)C(=O)N1CC[C@H](C[C@@H](C(=O)Nc2ncc(F)s2)c2ccc(S(=O)(=O)C3CC3)cc2)C1` [Example 11]: 427%; for `O=C(Nc1ncc(F)s1)[C@H](C[C@H]1CCN(C(=O)CO)C1)c1ccc(S(=O)(=O)C2CC2)cc1` [Example 13, (R)-2-(4-(cyclopropylsulfonyl)phenyl)-N-(5-fluorothiazol-2-yl)-3-((S)-1-(2-hydroxyacetyl)pyrrolidin-3-yl)propanamide]: 443%.
The same measure, in the same setting: next, `CNC(=O)N1CC[C@H](C[C@@H](C(=O)Nc2ncc(OC)s2)c2ccc(S(=O)(=O)C3CC3)cc2)C1` [Example 14, (S)-3-((R)-2-(4-(cyclopropylsulfonyl)phenyl)-3-((5-methoxythiazol-2-yl)amino)-3-oxopropyl)-N-methylpyrrolidine-1-carboxamide]: 809%; `CNC(=O)N1CC[C@H](C[C@@H](C(=O)Nc2ncc(Cl)s2)c2ccc(S(=O)(=O)C3CC3)cc2)C1` [Example 15, (S)-3-((R)-3-((5-chlorothiazol-2-yl)amino)-2-(4-(cyclopropylsulfonyl)phenyl)-3-oxopropyl)-N-methylpyrrolidine-1-carboxamide]: 737%; `CNC(=O)N1CC[C@H](C[C@@H](C(=O)Nc2ncc(C)s2)c2ccc(S(=O)(=O)C3CC3)cc2)C1` [Example 16, (S)-3-((R)-2-(4-(cyclopropylsulfonyl)phenyl)-3-((5-methylthiazol-2-yl)amino)-3-oxopropyl)-N-methylpyrrolidine-1-carboxamide]: 484%.
With `CNC(=O)N1CC[C@H](C[C@@H](C(=O)Nc2ccc(C)cn2)c2ccc(S(=O)(=O)C3CC3)cc2)C1` [Example 19, (S)-3-((R)-2-(4-(cyclopropylsulfonyl)phenyl)-3-((5-methylpyridin-2-yl)amino)-3-oxopropyl)-N-methylpyrrolidine-1-carboxamide], the results for the concentration at 150 min in data set [1] (setting [4]) and in data set [1] (setting [5]) were 10 ng/mL and 0.58 ng/mL, respectively. The selectivity ratio at 150 min in data set [2] (dose 10 mg/kg) was 17. In data set [3], the activity at 1 µM came out at 437%.
`Cc1ccc(NC(=O)[C@H](C[C@H]2CCN(C(N)=O)C2)c2ccc(S(=O)(=O)C3CC3)cc2)nc1` [Example 21, (S)-3-((R)-2-(4-(cyclopropylsulfonyl)phenyl)-3-((5-methylpyridin-2-yl)amino)-3-oxopropyl)pyrrolidine-1-carboxamide]: the concentration at 150 min was determined as 50 ng/mL in data set [1] (setting [4]) and 2 ng/mL in data set [1] (setting [5]). The selectivity ratio at 150 min in data set [2] (dose 10 mg/kg) was 25. Besides, in data set [3], the activity at 1 µM came out at 727%.
For the compound `CC(=O)N1CC[C@H](C[C@@H](C(=O)Nc2ccc(C)cn2)c2ccc(S(=O)(=O)C3CC3)cc2)C1` [Example 23, (R)-3-((S)-1-acetylpyrrolidin-3-yl)-2-(4-(cyclopropylsulfonyl)phenyl)-N-(5-methylpyridin-2-yl)propanamide], in data set [1] (liver and pancreas, dose 3 mg/kg), the selectivity ratio at 150 min stood at 9. The concentration at 150 min in data set [1] (liver, dose 3 mg/kg, read-out: Non-binding concentration (ng/mL) Liver) was 3 ng/mL; in data set [1] (pancreas, dose 3 mg/kg, read-out: Non-binding concentration (ng/mL) Pancreas), 0.33 ng/mL. Besides, in data set [3], the activity at 1 µM was 491%.
As for `COc1cnc(NC(=O)[C@H](C[C@H]2CCN(C(C)=O)C2)c2ccc(S(=O)(=O)C3CC3)cc2)s1` [Example 26, (R)-3-((S)-1-acetylpyrrolidin-3-yl)-2-(4-(cyclopropylsulfonyl)phenyl)-N-(5-methoxythiazol-2-yl)propanamide], the activity at 1 µM in data set [3] is 877%.

The record behind these values is US9242978B2, “Phenylacetamide compound and pharmaceutical containing same” (KOWA COMPANY, LTD., priority 2012, dated 2016).
